These are literature values, as cited in patent US20130195996A1, “METHOD OF PRODUCING PLEURODESIS” (CAREFUSION 2200, INC., priority 2010, published 2013).

The conditions of data set [1]: known methods, high dosages such as 10% concentration (typically 200 mg AgNO3), single dosage.
Data set [2] relates to rabbits. The following applies: single dosage administration of 0.1% silver nitrate (Marchi et al. 2005).
In data set [3] the test system is rabbits.
Where [4] appears, read: 2 mL of 0.25% silver nitrate (Vargas et al. 2001).

Regarding `O=[N+]([O-])[O-].[Ag+]` [silver nitrate], in data set [1], the “adverse effects associated with injection into the pleural space” value is “severe pain, fever, and relatively large amount of effusion”. The pleural inflammation entry in the data set with rabbits [2] is on record as “relatively intense pleural inflammation”. In the data set on rabbits [3] (setting [4]), the “persistence of pleurodesis result” value is listed as “persists for at least a year” and the pleurodesis result is recorded as “relatively superior pleurodesis result”. Moreover, in the data set with rabbits [3] (intrapleural injection of 0.5% silver nitrate (Texeira et al. 2003)), the pleurodesis result is “significant pleurodesis”. In addition, the sclerosing effects result with rabbits [3] (single intrapleural injection of 0.25% silver nitrate (Texeira et al. 2003)) was “no sclerosing effects”.
